Measurements: US9206194B2, “Halichondrin B analogs” (Eisai R&D Management Co., Ltd., priority 2008, dated 2015)

Legend:
[1] = tested on: MES-SA uterine sarcoma cells; test: Cell growth inhibition assay (methylene blue-based microculture), MES-SA; set-up: species or system human; conditions: MDR negative parental cell line, 4 days incubation, compound in the crystalline form described
Method: (§1) The anti-cancer activity of the compounds described above, in the crystalline forms described, was determined using cell growth inhibition assays as described in Liu, J. et al. Anticancer Research, 27:1509-1511 (2007). The activity data in terms of IC50 nM is described below in Table 9. MES-SA and MES-SA/Dx5-Rx1 uterine sarcoma, were obtained from the American Type Culture Collection and grown in the recommended conditions.
(§2) Cell Growth Inhibition Assays. Cells were seeded at 7.5×10^3 cells/well in 96-well plates in the recommended medium supplemented with 10% FBS and penicillin, streptomycin and L-glutamine. […] The cell growth was determined using modifications (see Finlay G. J., et al. “A semiautomated microculture method for investigating growth inhibitory effects of cytotoxic compounds on exponentially growing carcinoma cells.” Anal Biochem 139: 272-277, 1984) of a methylene blue-based microculture assay (See Towle M. J., et al. “In vitro and in vivo anticancer activities of synthetic macrocyclic ketone analogues of halichondrin B.” Cancer Res 61: 1013-1021, 2001). […] The plates were read at A600-A405.
(§3) Susceptibility of Compound to P-Glycoprotein-Mediated Multidrug Resistance (MDR). […] Both cell lines were seeded at 7.5×10^3 cells/well in McCoy's 5A supplemented with 10% FBS and penicillin, streptomycin and L-glutamine and cell growth was measured as above. […]

[2] = tested on: MES-SA/Dx5-Rx1 uterine sarcoma cells (expresses P-Glycoprotein at high levels); test: Cell growth inhibition assay (methylene blue-based microculture), Dx5-Rx1; set-up: species or system human; conditions: Dx5-Rx1, doxorubicin-selected P-glycoprotein expressing subline; 4 days incubation; compound in the crystalline form described
Method: as §1, §2, §3

[3] = tested on: P-Glycoprotein-mediated MDR, Dx5-Rx1 versus MES-SA cells; test: Susceptibility of compound to P-glycoprotein-mediated multidrug resistance (fold resistance); type: cell-based, human; conditions: fold resistance: ratio of the IC50 values in resistant and parental cell lines
Method: Susceptibility of Compound to P-Glycoprotein-Mediated Multidrug Resistance (MDR). A pair of human uterine sarcoma cell lines was used: MES-SA, the MDR negative parental cell line, and Dx5-Rx1, a cell line derived from MES-SA after long term of exposure to doxorubicin. This subline expresses P-Glycoprotein at high levels. Both cell lines were seeded at 7.5×10^3 cells/well in McCoy's 5A supplemented with 10% FBS and penicillin, streptomycin and L-glutamine and cell growth was measured as above. The ratio of the IC50 values obtained in the parental and resistant cell lines was termed fold resistance and provided an indication of compound susceptibility to P-glycoprotein-mediated MDR against the two cell lines were compared with each other.

Row | Compound | IC50 [1] [nM] | IC50 [2] [nM] | Ratio of DxR-Rx1/MES-SA [3]
1 | C=C1C[C@@H]2CC[C@@]34C[C@H]5O[C@H]6[C@@H](O3)[C@H]3O[C@H](CC[C@@H]3O[C@H]6[C@H]5O4)CC(=O)C[C@@H]3[C@@H](OC)[C@@H](C[C@H](O)CO)O[C@H]3C[C@H]3O[C@@H](CC[C@@H]1O2)C[C@@H](C)C3=C [ER-076349 monohydrate] | 0.03 | 6.5 | 217
2 | C=C1C[C@@H]2CC[C@@]34C[C@H]5O[C@H]6[C@@H](O3)[C@H]3O[C@H](CC[C@@H]3O[C@H]6[C@H]5O4)CC(=O)C[C@@H]3[C@@H](OC)[C@@H](C[C@H](O)CN)O[C@H]3C[C@H]3O[C@H](CC[C@@H]1O2)C[C@@H](C)C3=C [ER-820057 (epi-C23 amine)] | 3.3 | 1000 | 303
